Key:
Format in all cases: binding
[1] = biological target: T1, benzoylformate decarboxylase (BFDC) (Pseudomonas putida, UniProt P20906); test: circular dichroism titration at […] nm
[2] = biological target: T1, benzoylformate decarboxylase (BFDC); test: X-ray crystal structure
[3] = biological target: T1, benzoylformate decarboxylase (BFDC); test: X-ray crystal structure; remark: listed apart in the source

T1 sequence (P20906 whole entry): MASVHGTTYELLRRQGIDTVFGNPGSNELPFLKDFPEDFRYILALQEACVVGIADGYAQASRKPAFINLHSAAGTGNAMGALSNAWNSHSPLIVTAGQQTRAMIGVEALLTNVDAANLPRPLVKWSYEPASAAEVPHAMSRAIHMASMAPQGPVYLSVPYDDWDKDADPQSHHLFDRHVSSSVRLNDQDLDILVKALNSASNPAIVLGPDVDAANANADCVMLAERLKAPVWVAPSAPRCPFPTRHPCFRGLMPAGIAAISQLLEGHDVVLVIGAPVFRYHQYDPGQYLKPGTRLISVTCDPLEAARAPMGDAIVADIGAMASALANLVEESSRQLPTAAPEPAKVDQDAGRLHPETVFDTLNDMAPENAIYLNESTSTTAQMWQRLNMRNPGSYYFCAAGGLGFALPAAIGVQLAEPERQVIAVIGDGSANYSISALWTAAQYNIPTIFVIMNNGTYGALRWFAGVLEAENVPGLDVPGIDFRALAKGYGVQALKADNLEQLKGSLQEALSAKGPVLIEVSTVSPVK

With `COP(=O)(O)C(C)=O` [MAP, methyl acetylphosphonate] the Kd [1] was 5490 µM.

In the case of `Cc1ncc(C[n+]2csc(CCOP(=O)([O-])OP(=O)(O)O)c2C)c(N)n1` [ThDP, thiamin diphosphate], the “X-ray crystal structure (1.37 Å), seen as its adduct with MBP” value [2] is reported as “the observed electron density is best fit by the covalent adduct between ThDP and MBP”.

In the case of `COP(=O)(O)C(=O)c1ccccc1` [MBP, methyl benzoylphosphonate], the Kd [3] is reported as 113 µM.
